Measured values: patent publication US20220098197A1, “SALTS OF HETEROCYCLIC COMPOUND AND USE THEREOF” (priority 2019, published 2022)

Tests used:
neutrophils = test: PGD2-induced neutrophils migration, Boyden chamber assay (Example 1); type: cell-based, mice; details: pretreatment CT-NA 1 and 10 μM (p<0.01) or OC459; PGD2 1 μM; 4 hrs
Description: The mice were intragastrically administered glycogen (1.5%) at the dose range of 20 ml/kg of body weight. 4 hrs later, the mice were euthanized to isolate neutrophils from the peritoneal lavage. The effect of CT-NA on neutrophils migration was detected by using the Boyden chamber assay kit (3 μm pore size). PGD2 was used as a chemoattractant because the activated PGD2/CRTH2 receptors promoted the migration of neutrophils. Initially, the isolated neutrophils (4×10^5) were diluted in 100 μL HBSS and allowed to migrate toward PGD2 (0.1, 1 and 10 μM) for 4 hrs to find out the suitable PGD2 concentration. Then, the isolated neutrophils (4×10^5) were pretreated with CT-NA (1 and 10 μM), and their migration to PGD2 (1 μM) was evaluated by counting the migrated neutrophils. Moreover, another potent CRTH2 inhibitor OC459 was used to countercheck the outcomes of CT-NA.

CS-induced ALI mice = test: CS-induced lung injury model: pulmonary histopathology (H&E); type: in vivo, Balb/c mice
Description: Model preparation: The mice were randomly divided into 5 groups (12 mice in each group), which were the control group (the mice were exposed to fresh air), the saline group (the mice were exposed to cigarette smoke), dexamethasone (Dex) group (1 mg/kg) (the mice were exposed to cigarette smoke), CT-NA 10 mg/kg group and CT-NA 30 mg/kg group (the mice were exposed to cigarette smoke). According to the grouping, the mice were intragastrically administered saline, Dex and CT-NA, respectively. Thereafter, the mice were exposed to fresh air or cigarette smoke generated from 3R4F research-grade cigarettes (containing about 600 mg TPM/m^3 and 29.9 mg nicotine/m^3) in a cuboid plastic box (65×50x×45 cm). Ten cigarettes were burned every day for seven days. After one cigarette was burned, the next cigarette was ignited. The daily body weight and general condition of the mice were checked. 24 hrs after the last exposure to the cigarette smoke, the partial pressure of oxygen (PO2) of all mice was measured by the Moor VMS-OXY™ measuring instrument, which was used to measure the oxygenated/deoxygenated hemoglobin concentration and oxygen saturation (percentage) in the microcirculation at the wavelength range of 500 to 650 nm. Then, all mice were euthanized to collect bronchoalveolar lavage fluid (BALF) for measuring the total number of inflammatory cells, cytokine levels and albumin concentration. […]

LPS-induced ALI mice = test: LPS-induced ALI model: lung weight coefficient; type: in vivo, Balb/c mice; details: CT-NA 10 or 30 mg/kg (P<0.01, dose-dependent), Dex 1 mg/kg; 24 hrs after LPS
Description: Specific pathogen-free (SPF) Balb/c mice (♂/♀; 20-26 g; 8 weeks old) were purchased from Shanghai SIPPR-BK Experimental Animal Co., Ltd. Mice were kept in an isolated ventilated cage in an environment of 40-60% humidity, 24±2° C., and 12 hrs/12 hrs dark-light cycle, and had free access to food and water. The method for preparing the LPS-induced ALI model was simply described as follows. The mice were randomly divided into a control group (12 mice) and an LPS group (48 mice). The LPS group (48 mice) was further divided into four subgroups (12 mice in each subgroup). […] 24 hrs after LPS challenge, the oxygen saturation (SO2) of all mice was measured by a Moor VMS-OXY™ instrument which measured SO2 (%) in the microcirculation at the wavelength range of 500 to 650 nm. […]
The mice were euthanized to expose the trachea, and then the right lungs were lavaged three times with 0.4 mL/time of sterile normal saline containing bovine serum albumin (BSA) and 5000 IU/L heparin to collect the BALF via tracheal tube. […] The removed lung tissues were weighted after aspirating the surface blood, and the lung weight coefficient was calculated. The lung weight coefficient was an indicator of pulmonary edema, and it was measured by dividing the individual lung weight of each mouse by its total body weight.

Q: Which PGD2-induced neutrophils migration (neutrophils) does the source give for `CN([C@@H]1CCc2c(CC(=O)[O-])c3cccnc3n2C1)S(=O)(=O)c1ccc(F)cc1.[Na+]` [Sodium salt hydrate] here?
A: Its PGD2-induced neutrophils migration is “significantly attenuated”.

Q: And the mean pathological scores (CS-induced ALI mice; CT-NA 10 and 30 mg/kg, Dex 1 mg/kg, 5-point scoring, dose-dependent, p<0.01)?
A: The mean pathological scores was “considerably reduced”.

Q: And the “CS-induced pulmonary histopathological changes” value (CS-induced ALI mice; pretreatment with CT-NA 10 and 30 mg/kg or Dex 1 mg/kg, H&E)?
A: Its value is “strikingly improved”.

Q: What about the “lung wet weight coefficient” value (LPS-induced ALI mice) of the same compound?
A: The value was “notably reduced”.
